From US9428447B2, “Bis-(aryl/heteroaryl)-methylene compounds, pharmaceutical compositions containing same and their use for treating cancer” (The Royal Institution For The Advancement of …, priority 2011, dated 2016)

Tests used:
VDR [1] = target: T1, VDR (Homo sapiens (Human), UniProt P11473); test: VDR agonism: induction of CYP24 gene expression in SCC25 cells (RT/PCR); format: cell-based; conditions: for VDR agonism by induction of CYP24 gene expression (screen): test compounds 10 μM, FIG. 1a; for VDR agonist activity/potency (CYP24 induction, dose response): 1d; for induction of CYP24 by the compound blocked (consistent with binding to the VDR): FIG. 1c
T1 sequence (P11473 whole entry): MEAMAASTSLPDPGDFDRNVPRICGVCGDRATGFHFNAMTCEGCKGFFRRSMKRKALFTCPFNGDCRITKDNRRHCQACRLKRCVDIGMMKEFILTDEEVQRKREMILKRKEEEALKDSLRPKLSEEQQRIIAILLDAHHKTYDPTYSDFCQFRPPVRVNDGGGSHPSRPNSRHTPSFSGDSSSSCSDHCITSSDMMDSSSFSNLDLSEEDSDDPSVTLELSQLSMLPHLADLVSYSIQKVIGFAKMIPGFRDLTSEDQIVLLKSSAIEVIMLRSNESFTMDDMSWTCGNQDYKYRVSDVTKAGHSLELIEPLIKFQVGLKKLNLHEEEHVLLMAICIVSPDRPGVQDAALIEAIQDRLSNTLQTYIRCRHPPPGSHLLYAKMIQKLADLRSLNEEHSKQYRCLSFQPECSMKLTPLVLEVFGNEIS
Method: RNA isolation and RT/PCR analysis. PCR primers against CYP24 (forward, 5',5'-[NT], reverse, 5'-[NT] designed using Primer3 software as described and used in […]-Mendoza, Quach, T., Dabbas, B., Hudon, J., Liao, X., Palijan, A., Gleason, J. L., and White, J. H. (2008) Incorporation of histone deacetylase inhibition into the structure of a nuclear receptor agonist. Proc. Nat. Acad. Sci. […] After treatment, cells were washed with PBS, homogenized with 1 ml TRIzol Reagent (Invitrogen, Carlsbad, Calif.), kept at room temperature for 2-5 min, collected and kept at -80° C. for at least 1 h. After, thawing 0.2 ml chloroform was added. After vigorous mixing and storing for 10 min, mixtures were centrifuged (10,000 rpm, 15 min, 4° C.) and the upper transparent layer was transferred to a new tube. 0.5 ml isopropanol was added and the new solution was mixed. After centrifuging at 4° C., the supernatant was discarded and 1 ml of 75% ethanol was added. After centrifuging and discarding the supernatant, the pellet was air-dried for 5-10 min, and then dissolved in ddH2O. RNA concentrations were measured using a spectrophotometer, and 1-3 μg of RNA were loaded for reverse transcriptase reactions (total volume: 20 μl). 80 μl of ddH2O was added to the RT-product, and 1.5 μl of that was used as template for the PCR reaction. Reverse transcriptase (Super Script II) was purchased from Invitrogen (Carlsbad, Calif.). DNA polymerase and dNTP's were ordered from Fermentas (Glen Burnie, Md.).

SCC4 cells [2] = test: LDH cytotoxicity assay, SCC4; format: cell-based, human; conditions: vitamin D resistant SCC4 cells; FIGS. 10 and 11
Method: The cytotoxic effects of compounds were screened using a Cytotoxicity Assay Kit (Cayman Chemical), which measures release of the soluble […] enzyme lactate dehydrogenase (LDH) from dying cells into the culture medium using a coupled two-step reaction. LDH in the media catalyzes the reduction of NAD+ to NADH and H+ by oxidation of lactate to pyruvate. LDH-catalyzed NADH production is then measured by following diaphorase catalyzed NADH-dependent reduction of a tetrazolium salt (INT) to highly-colored formazan which absorbs strongly at 490-520 nm.

SCC4 cells [3] = test: MTS cell proliferation assay, SCC4; format: cell-based, human; conditions: vitamin D resistant SCC4 cells; FIGS. 7c, 8 and 9
From the text: Dose-dependent effects of compounds on cell cycle progression was monitored using a CellTiter 96 Aqueous Non-Radioactive Cell Proliferation Assay Kit (Promega). The assay composed of solutions of a novel tetrazolium compound (MTS) and an electron coupling reagent (phenazine methosulfate; PMS). MTS is reduced by metabolically active cells into a soluble formazan product that absorbs at 490 nm. The quantity of formazan product absorbing at 490 nm is directly proportional to the number of living cells.

SCC4 cells [4] = test: EdU cell growth assay, SCC4; conditions: 1,25D-resistant SCC4 cells; FIG. 2e, f
Method: EdU Cell Growth Assay. Click-iT EdU Alexa Fluor high-throughput imaging (HCS) assay for cell proliferation. HCS assays were performed on AT84 mouse squamous carcinoma cell line (ATCC) following the manufacturer's instruction (Molecular Probes, Invitrogen). […] All samples were in triplicate.

VDR [5] = target: T1, VDR; test: Chromatin immunoprecipitation (ChIP) assay, CYP24 promoter, SCC25 cells; format: cell-based; conditions: FIG. 1e
Method: Chromatin immunoprecipitation assays. ChIP assays were performed with sonicated extracts of SCC25 cells as described (see Wang, T.-T. et al. J Immunol (2004) 173:2909-2912). […] Immunoprecipitations were performed using normal rabbit IgG, anti-VDR antibody (c-20) (Santa Cruz Biotechnology, Santa Cruz, Calif.). […].

[6] = target: VDR ligand binding domain (Homo sapiens (Human), UniProt P11473); test: Fluorescence polarization (FP) competition assay; conditions: 0.5 nM fluorescent tracer
Sequence of VDR ligand binding domain (P11473 127-423): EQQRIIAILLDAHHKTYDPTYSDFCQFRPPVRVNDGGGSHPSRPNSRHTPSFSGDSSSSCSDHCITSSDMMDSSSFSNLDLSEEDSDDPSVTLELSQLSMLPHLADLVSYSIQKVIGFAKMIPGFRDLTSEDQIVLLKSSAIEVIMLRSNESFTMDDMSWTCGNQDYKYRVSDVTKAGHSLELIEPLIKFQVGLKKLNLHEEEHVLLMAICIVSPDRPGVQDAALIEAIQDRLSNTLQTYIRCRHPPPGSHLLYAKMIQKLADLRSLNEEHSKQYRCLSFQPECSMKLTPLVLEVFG
Method: Fluorescence polarization (FP) competition assay. The assay was performed using a vitamin D receptor competitor assay kit (Polarscreen, Invitrogen, Carlsbad, Calif.) set up using 0.5 nM fluorescent tracer. The assay measures the decrease in FP accompanying loss of binding to the relatively high molecular weight VDR ligand binding domain of the fluorescent tracer due to the presence of a competitor. FP was measured using an Analyst HT fluorimeter (Molecular Devices) configured with absorption and emissions filters as recommended by the kit manufacturers. Dose response curves and IC50 determination were determined using XLfit (IDBS) Sigmoidal Dose-Response Model [fit=(A+((B−A)/(1+((C/x)^D)))); inv=(C/((((B−A)/(y−A))−1)^(1/D))); res=(y−fit)].

[7] = system: total intracellular HDAC activity; test: HDACi activity with fluorogenic substrate in live SCC25 cells; format: cell-based, human; conditions: increasing concentration, FIG. 2a, b
From the text: (§1) This assay measures the inhibition of total intracellular HDAC activity and determines the capacity of compounds to inhibit HDACs in the form of their naturally occurring complexes.

[8] = system: total intracellular HDAC activity; test: HDACi activity with fluorogenic substrate in live SCC4 cells; format: cell-based, human; conditions: increasing concentration, FIG. 2a, b
From the text: as §1

For `CCC(CC)(c1ccc(OCC(=O)O)c(C)c1)c1ccc(OCC(=O)C(C)(C)C)c(C)c1` [JF-C11], the “VDR agonism by induction of CYP24 gene expression (screen)” value (from here on “VDR agonism by induction”) (VDR [1]) was “showed some agonist activity”.
`CCC(CC)(c1ccc(OCC(O)C(C)(C)C)c(C)c1)c1ccc(OCC(=O)NO)c(Br)c1` (stereo not shown) [DK-309, 2-(2-bromo-4-(3-(4-(2-hydroxy-3,3-dimethylbutoxy)-3-methylphenyl)pentan-3-yl)phenoxy)-N-hydroxyacetamide] was tested, and the “cytotoxicity (LDH release)” value (SCC4 cells [2]) was “good cytotoxicity”.
With `CCC(CC)(c1ccc(OCC(O)C(C)(C)C)c(C)c1)c1c[nH]c2cc(CCC(=O)NO)ccc12` (stereo not shown) [DK-222] the “cytotoxicity (LDH release)” value (SCC4 cells [2]) was “good cytotoxicity” and the “antiproliferative potency (MTS)” value (SCC4 cells [3]) was “low micromolar potency”.
`CCC(CC)(c1ccc(OCC(O)CO)c(C)c1)c1ccc(OCC(O)C(C)(C)C)c(C)c1` (stereo not shown) [LG190178] was tested, and the “inhibition of proliferation (EdU incorporation)” value (SCC4 cells [4]) was “failed to block SCC4 proliferation”.
With `CCC(CC)(c1ccc(OCC(=O)NO)cc1)c1ccc(OCC(O)C(C)(C)C)c(C)c1` (stereo not shown) [DK-366, N-hydroxy-2-(4-(3-(4-(2-hydroxy-3,3-dimethylbutoxy)-3-methylphenyl)pentan-3-yl)phenoxy)acetamide] the “cytotoxicity (LDH release)” value (SCC4 cells [2]) was “good cytotoxicity” and the “antiproliferative potency (MTS)” value (SCC4 cells [3]) was “low micromolar potency”.
In the case of `CCC(CC)(c1ccc(OCC(=O)NO)c(C)c1)c1ccc(OC[C@H](O)C(C)(C)C)c(C)c1` [JF-C71, N-Hydroxy-2-(4-(3-(4-((2R)-hydroxy-3,3-dimethylbutoxy)-3-methylphenyl)pentan-3-yl)-2-methylphenoxy)acetamide], the “binding of the VDR to the vitamin D response element in the proximal promoter of the CYP24 gene (ChIP)” value (VDR [5]) is reported as “induced binding of the VDR to the vitamin D response element”, the “VDR agonist activity/potency (CYP24 induction, dose response)” value (shortened to “VDR agonist activity/potency”) (VDR [1]; FIG. 1b) is reported as “VDR agonists with similar potencies” and the “antiproliferative potency (MTS)” value (SCC4 cells [3]) is reported as “low micromolar potency”. It also gave an IC50 [6] of about 100 nM.
With `CCC(CC)(c1ccc(OCC(=O)NO)c(C)c1)c1ccc(OCC(=O)C(C)(C)C)c(C)c1` [JF-B59, 2-(4-(3-(4-(3,3-dimethyl-2-oxobutoxy)-3-methylphenyl)pentan-3-yl)-2-methylphenoxy)-N-hydroxyacetamide] the “VDR agonist potency relative to JF-B01 (fold lower)” value (VDR [1]; FIG. 1b) was over 10 fold.
`CCC(CC)(c1ccc(OCC(=O)NO)c(C)c1)c1ccc(OCC(O)CO)c(C)c1` (stereo not shown) [JF-B40] was tested, and the “VDR agonism by induction” value (VDR [1]) was “completely inactive as VDR agonists”.
With `CCC(CC)(c1ccc(OCC(O)C(C)(C)C)c(C)c1)c1cc(C)c(CCC(=O)NO)s1` (stereo not shown) [DK-178, N-hydroxy-3-(5-(3-(4-(2-hydroxy-3,3-dimethylbutoxy)-3-methylphenyl)pentan-3-yl)-3-methylthiophen-2-yl)propanamide] the “antiproliferative potency (MTS)” value (SCC4 cells [3]) was “low micromolar potency”.
`CCC(CC)(c1ccc(OCC(=O)NO)c(C)c1)c1ccc(OCC(=O)NO)c(C)c1` [JF-B06] was tested, and the “VDR agonism by induction” value (VDR [1]) was “completely inactive as VDR agonists”.
`CCC(CC)(c1ccc(OCC(O)C(C)(C)C)c(C)c1)c1cn(C)c2cc(CCC(=O)NO)ccc12` (stereo not shown) [DK-234, N-hydroxy-3-(3-(3-(4-(2-hydroxy-3,3-dimethylbutoxy)-3-methylphenyl)pentan-3-yl)-1-methyl-1H-indol-6-yl)propanamide] was tested, and the “antiproliferative potency (MTS)” value (SCC4 cells [3]) was “low micromolar potency”.
In the case of `CCC(CC)(c1ccc(OCC(=O)NO)c(C)c1)c1ccc(OC[C@@H](O)C(C)(C)C)c(C)c1` [JF-C72], the “binding of the VDR to the vitamin D response element in the proximal promoter of the CYP24 gene (ChIP)” value (VDR [5]) is reported as “induced binding of the VDR to the vitamin D response element”, the “VDR agonist activity/potency” value (VDR [1]; FIG. 1b) is reported as “VDR agonists with similar potencies” and the “antiproliferative potency (MTS)” value (SCC4 cells [3]) is reported as “low micromolar potency”. The IC50 [6] was about 35 nM.
For `CCC(CC)(c1ccc(CCC(=O)NO)c(C)c1)c1ccc(OC[C@H](O)C(C)(C)C)c(C)c1` [JFD-50], the “antiproliferative potency (MTS)” value (SCC4 cells [3]) was “low micromolar potency”.
With `CCC(O)(CC)COc1ccc(C(CC)(CC)c2ccc(OCC(=O)NO)c(C)c2)cc1C` [JF-B54, 2-(4-(3-(4-(2-Ethyl-2-hydroxybutoxy)-3-methylphenyl)pentan-3-yl)-2-methylphenoxy)-N-hydroxyacetamide] the “inhibition of total intracellular HDAC activity (substrate deacetylation)” value [7] was “the most potent”, the “inhibition of total intracellular HDAC activity (substrate deacetylation)” value [8] was “the most potent” and the “VDR agonist activity/potency” value (VDR [1]; FIG. 1b) was “showed VDR agonist activity, but with reduced potency”. For the same compound, the “induction of CYP24 by the compound blocked (consistent with binding to the VDR)” value (VDR [1]) was “blocked”.
In the case of `CCC(CC)(c1ccc(OCCO)c(C)c1)c1ccc(OCC(=O)NO)c(C)c1` [JF-B52, N-Hydroxy-2-(4-(3-(4-(2-hydroxyethoxy)-3-methylphenyl)pentan-3-yl)-2-methylphenoxy)acetamide], the “VDR agonism by induction” value (VDR [1]) is reported as “completely inactive as VDR agonists”.
With `CCC(CC)(c1ccc(OCCCCCC(=O)NO)cc1)c1ccc(OCC(O)C(C)(C)C)c(C)c1` (stereo not shown) [DK-367] the “antiproliferative potency (MTS)” value (SCC4 cells [3]) was “low micromolar potency”.
With `CCC(CC)(c1ccc(OCC(=O)NO)c(C)c1)c1ccc(OCC(C)(C)O)c(C)c1` [JF-B53, N-Hydroxy-2-(4-(3-(4-(2-hydroxy-2-methylpropoxy)-3-methylphenyl)pentan-3-yl)-2-methylphenoxy)acetamide] the “VDR agonist activity/potency” value (VDR [1]; FIG. 1b) was “showed VDR agonist activity, but with reduced potency” and the “induction of CYP24 by the compound blocked (consistent with binding to the VDR)” value (VDR [1]) was “blocked”.
For `CCC(CC)(c1ccc(OCCCC(=O)NO)c(C)c1)c1ccc(OC[C@H](O)C(C)(C)C)c(C)c1` [JFD-15], the “antiproliferative potency (MTS)” value (SCC4 cells [3]) was “low micromolar potency”.
With `CCC(CC)(c1ccc(OCC(=O)NO)c(C)c1)c1ccc(OCC(CO)CO)c(C)c1` [JF-B21] the “VDR agonism by induction” value (VDR [1]) was “completely inactive as VDR agonists”.
